In patent US8017596B2, “Phosphonates useful as modulators of T-γ-9-δ-2 activity” (Innate Pharma, S.A., priority 2001, dated 2011):

Key:
[1] = tested on: Human peripheral blood lymphocytes (PBMC); test: Human peripheral blood T lymphocyte proliferation activation (3H-thymidine incorporation, stimulation index); settings: concentrations 0.001 μM to 500 μM, 4 days then 24 hours 3H-TdR, FIG. 1
Protocol: Human peripheral blood lymphocytes (PBMC) are isolated from donors' by centrifugation on Ficoll-Hypaque. They are then placed in culture in 96-well plates at a rate of 2.10^6 cells/ml in 200 μl of RPMI 1640 medium (Gibco) containing 10% foetal calf serum or human AB serum, 20 mM of Glutamine, 10 mM Hepes, 1 mM of sodium pyruvate, 10 μg/ml of penicillin-streptomycin. The molecules under test are then added at final concentrations ranging from 0.001 μM to 500 μM. Each condition is produced in triplicate. The molecules are diluted in isotonic phosphate buffer (PBS). The cells are then incubated at 37° C.-5% CO2 for 4 days. Cell proliferation is then determined by measuring the incorporation of thymidine ^3H (^3H-TdR). For this, 0.5 μCi of ^3H-TdR is added per culture. After 24 hours, the cells are retrieved on Cell Harvester (Packard Instruments) and the radioactivity incorporated in high molecular weight material is counted using a Rack-Beta counter (Packard).
The stimulation indices are evaluated as follows:
In all the experiments, isoprenyl pyrophosphonate (IPP) is selected as the reference.

Vγ9/Vδ2 lymphocytes = test: Vγ9/Vδ2 lymphocyte expansion (flow cytometry immunofluorescence, anti-CD3 / anti-Vγ9); type: cell-based, human; settings: PBMC after 5 days in culture, 100 μM; FIG. 2E-2L
Protocol: FIGS. 2A-2L. In order to verify selectivity with respect to Vγ9/Vδ2 lymphocytes of molecule activating potential, PBMCs, were cultured and analysed after 5 days of culture in the presence of various molecules by flow cytometry immunofluorescence. For this, the cells are retrieved, washed in PBS and then incubated in the presence of human anti-CD3 monoclonal antibodies conjugated with fluoroscein (FITC, FL1) and human anti-Vγ9 coupled with biotin and then detected with Streptavidine-phycoerythrin conjugate (ST-PE, FL2). The markings are produced by incubating for 30 minutes with 0.5 μg of each antibody per million cells. The analysis is performed after washing on a FACScalibur-SORT cell analyser-sorter cytofluorimeter (Becton Dickinson, Mountain View, CA). FIG. 2A gives the profile (size FSC and granularity SSC) of the cells studied. […] FIGS. 2D to 2L show a PBMC after 5 days in culture in the presence of the molecule tested. FIG. 2D: cells stimulated with 1μg/ml phytohaemagglutinin A (PHA). FIG. 2E: cells stimulated with 100μM isoprenylpyrophosphate (IPP). FIG. 2F: cells stimulated with 100μM 1-pyrophosphono-4-methylpenta-1,3-diene. FIG. 2G: cells stimulated with 100μM (E) 1-pyrophosphono-penta-1,3-diene. FIG. 2H: cells stimulated with 100μM (E) 1-pyrophosphono-buta-1,3-diene, FIG. 2I: cells stimulated with 100μM 5-pyrophosphono-2-methylpent-2-ene. FIG. 2J: cells stimulated with 100μM α,γ-di-[4-methylpent-4-enyl]-triphosphonate. FIG. 2K: cells stimulated with 100μM 5-pyrophosphono-2methylpentene. FIG. 2L: cells stimulated with 100μM 5-triphosphono-2-methylpentene.
In order to verify selectivity with respect to Vγ9/Vδ2 lymphocytes of the molecule activating potential, PBMCs, cultured under the conditions described above were analysed after 5 days of culture in the presence of various molecules by flow cytometry immunofluorescence. For this, the cells are retrieved, washed in PBS and then incubated in the presence of human anti-CD3 monoclonal antibodies conjugated with fluoroscein (FITC, FL1) and human anti-Vγ9 coupled with biotin and then detected with Streptavidine-phycoerythrin conjugate (ST-PE, FL2). The markings are produced by incubating for 30 minutes with 0.5 μg of each antibody per million cells. The analysis is performed after washing on a FACScalibur-SORT cell analyser-sorter cytofluorimeter (Becton Dickinson, Mountain View, Calif.). The results are processed using Cellquest software.
FIG. 2A gives the profile (size FSC and granularity SSC) of the cells studied. […] FIGS. 2D to 2L show a PBMC after 5 days in culture in the presence of the molecule tested.

human γ9δ2 T lymphocytes = settings: in vitro; literature (Tanaka et al. 1994; Kunzmann et al. 2000); cited from earlier work
[2] = Stability in human AB serum followed by phosphorus 31 NMR; settings: three days of incubation; for degradation of the molecule after incubation in serum: human AB serum, 31P NMR
Protocol: To 0.5 ml of each solution, 500 μl of human AB serum was added and the mixture were left to incubate. After three days of incubation, the degradation of the molecule is measured by phosphorus 31 NMR.

[3] = 0.1 mole/liter in D2O, 0.5 ml + 500 μl human AB serum

| Molecule | inducing T lymphocyte proliferation (proliferation index) compared with IPP [1] | Vγ9/Vδ2 T cell population in stimulated cultures (Vγ9/Vδ2 lymphocytes) | γ9δ2 T lymphocyte proliferation (human γ9δ2 T lymphocytes) | other results |
| --- | --- | --- | --- | --- |
| 5-pyrophosphono-2-methylpent-2-ene [Compound M4] | more effective than IPP | high increase | – | – |
| α,γ-di-[4-methylpent-4-enyl]-triphosphonate [Compound M5] | more effective than IPP | high increase | – | – |
| CCCCCN(C)CCC(O)(P(=O)(O)O)P(=O)(O)O [ibandronate] | – | – | stimulants of γ9δ2 T lymphocyte proliferation | – |
| (E) 1-pyrophosphono-penta-1,3-diene [Compound M2] | more effective than IPP | high increase | – | – |
| (E) 1-pyrophosphono-buta-1,3-diene [Compound M3] | more effective than IPP | high increase | – | – |
| NCCCC(O)(P(=O)(O)O)P(=O)(O)O [alendronate] | – | – | stimulants of γ9δ2 T lymphocyte proliferation | – |
| C=C(C)CCO[P@@](=O)(O)OP(=O)(O)O [IPP, isopentenyl pyrophosphate, reference compound] | – | – | – | integral of the 31P NMR peak of the intact molecule [2, 3]: 1.2; degradation of the molecule after incubation in serum [2]: significant degradation |
| CCOP(=O)(O)O [monoethylphosphate] | – | – | induce in vitro, the proliferation of γ9δ2 T lymphocytes | – |
| NCCC(O)(P(=O)(O)O)P(=O)(O)O [pamidronate] | – | – | stimulants of γ9δ2 T lymphocyte proliferation | – |
| (E) 1-pyrophosphono-4-methylpenta-1,3-diene [Compound M1] | more effective than IPP | high increase | – | – |
| isopentenyl pyrophosphonate [IPPN] | – | – | – | integral of the 31P NMR peak of the degradation product (isoprenyl phosphate / isoprenyl phosphonate) [2, 3]: 1.1; integral of the 31P NMR peak of the intact molecule [2, 3]: 96; degradation of the molecule after incubation in serum [2]: changed negligibly |
| 5-pyrophosphono-2-methylpentene [Compound M6] | more effective than IPP | high increase | – | – |
| 5-triphosphono-2-methylpentene [Compound M7] | more effective than IPP | high increase | – | – |
